According to patent publication US5482967A, “Condensed heterocyclic compounds, their production and use” (Takeda Chemical Industries, Ltd., priority 1992, dated 1996):
Structures can show the parent of a compound that is named as a salt.

The compounds below were run against substance P receptor (Homo sapiens, UniProt P25103) (assay: Radioligand receptor binding inhibitory assay using receptor from human lymphoblast cells (IM-9), 125I-BHSP). Conditions: IM-9 receptor, 25° C., 30 minutes.
Procedure: The method of A. Margaret et al. [Molecular Pharmacology 42, 458 (1992)] was modified and used. The receptor was prepared from human lymphoblast cells (IM-9). IM-9 cells were grown in 175 cm^2 tissue culture flasks (100 ml×10) at a density approximately 2×10^5 /ml of RPMI 1640 with L-glutamine, 10% (V/V) heat inactivated fetal calf serum, penicillin (100 u/ml), and streptomycin (100 μg/ml) at 37° C. in 5% CO2 /95% air for 3 days. IM-9 cells were obtained by centrifugation at 500×g for 5 minutes at 5° C. The pellet obtained was washed once with phosphate buffer (Flow Laboratories, CAT No. 28-103-05), homogenized using Polytron homogenizer (Kinematika, Germany) in 30 ml of 50 mM Tris-HCl buffer containing 120 mM NaCl, 5 mM KCl, 2 μg/ml phenylmethyl sulfonyl fluoride, and 1 mM ethylenediamine tetra-acetic acid and then centrifuged at 40,000×g for 20 minutes. The residue was washed twice with 30 ml of buffer described above, and preserved frozen (-80° C.).
The above specimen was suspended in a reaction buffer (50 mM Tris-HCl buffer (pH 7.4), 0.02% bovine serum albumin, 1 mM phenylmethylsulfonyl fluoride, 2 μg/ml chymostatin, 40 μg/ml bacitracin, 3 mM manganese chloride) at a protein concentration of 1.5 mg/ml and a 100 μl portion of the suspension was used in the reaction. After addition of the sample and 125I-BHSP (0.46 KBq), the reaction was conducted in 0.2 ml of reaction buffer at 25° C. for 30 minutes. The amount of nonspecific binding was determined by adding substance P at a final concentration of 2×10^-6 M. After the reaction, using a cell harvester (290PHD, Cambridge Technology, Inc., England), rapid filtration was carried out through a glass filter (GF/B, Whatman, U.S.A.) to stop the reaction. After washing three times with 250 μl of 50 mM Tris-HCl buffer (pH 7.4) containing 0.02% bovine serum albumin, the radioactivity remaining on the filter was measured with a gamma counter. Before use, the filter was immersed in 0.1% polyethyleneimine for 24 hours and air-dried.

Sequence of substance P receptor (P25103 whole entry): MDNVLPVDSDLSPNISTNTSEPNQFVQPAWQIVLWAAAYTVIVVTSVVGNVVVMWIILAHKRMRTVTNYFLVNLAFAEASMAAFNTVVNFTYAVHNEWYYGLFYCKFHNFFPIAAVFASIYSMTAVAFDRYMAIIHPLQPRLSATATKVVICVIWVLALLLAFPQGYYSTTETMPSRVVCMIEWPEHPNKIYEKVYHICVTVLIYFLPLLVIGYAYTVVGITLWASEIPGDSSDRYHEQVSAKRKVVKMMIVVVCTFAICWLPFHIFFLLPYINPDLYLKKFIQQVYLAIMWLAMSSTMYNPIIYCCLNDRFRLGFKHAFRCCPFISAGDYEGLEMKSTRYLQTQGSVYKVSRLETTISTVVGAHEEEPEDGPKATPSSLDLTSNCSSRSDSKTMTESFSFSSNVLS

| SMILES | IC50 |
| --- | --- |
| Cn1c(C(=O)NCc2cc(C(F)(F)F)cc(C(F)(F)F)c2)c(-c2ccccc2)c2c(c1=O)CCCC2 [Example 185, N-[3,5-Bis(trifluoromethyl)benzyl]-1,2,5,6,7,8-hexahydro-2-methyl-1-oxo-4-phenyl-3-isoquinolinecarboxamide] | 32 nM |
| Cc1ccc(CNC(=O)c2c(-c3ccccc3)c3cc(C)c(C)cc3c(=O)n2C)cc1 [Example 127, 1,2-Dihydro-2,6,7-trimethyl-N-(4-methylbenzyl)-1-oxo-4-phenyl-3-isoquinolinecarboxamide] | 8.8 nM |
| Cn1c(COCc2cc(C(F)(F)F)cc(C(F)(F)F)c2)c(-c2ccccc2)c2ccccc2c1=O [Example 211, 3,5-Bis(trifluoromethyl)benzyl 1,2-dihydro-2-methyl-1-oxo-4-phenyl-3-isoquinolinemethyl ether] | 23 nM |
| CCOC(=O)CCn1c(C(=O)NCc2cc(C(F)(F)F)cc(C(F)(F)F)c2)c(-c2ccccc2)c2ccccc2c1=O [Example 179, N-[3,5-Bis(trifluoromethyl)benzyl]-2-(2-ethoxycarbonylethyl)-1,2-dihydro-1-oxo-4-phenyl-3-isoquinolinecarboxamide] | 80 nM |
| CN(Cc1cc(C(F)(F)F)cc(C(F)(F)F)c1)C(=O)c1c(Cl)nc2ccccc2c1-c1ccccc1 [Example 269, N-[3,5-Bis(trifluoromethyl)benzyl]-2-chloro-N-methyl-4-phenyl-3-quinolinecarboxamide] | 1.4 nM |
| CN(Cc1cc(C(F)(F)F)cc(C(F)(F)F)c1)C(=O)c1oc(=O)c2ccc(Cl)cc2c1-c1ccccc1 [Example 242, N-[3,5-Bis(trifluoromethyl)benzyl]-6-chloro-N-methyl-1-oxo-4-phenyl-1H-2-benzopyran-3-carboxamide] | 8.6 nM |
| Cc1ccc2c(c1)c(-c1ccccc1Cl)c(C(=O)N(C)Cc1cc(C(F)(F)F)cc(C(F)(F)F)c1)c(=O)n2C [Example 263, N-[3,5-Bis(trifluoromethyl)benzyl]-4-(2-chlorophenyl)-1,2-dihydro-N,1,6-trimethyl-2-oxo-3-quinolinecarboxamide] | 46 nM |
| Cc1ccccc1-c1c(C(=O)N(C)Cc2cc(C(F)(F)F)cc(C(F)(F)F)c2)c(=O)oc2ccc(Cl)cc12 [Example 248] | 16 nM |
| COc1ccccc1CN(C)C(=O)c1c(-c2ccccc2)c2cc(C)c(C)cc2c(=O)n1C [Example 111, 1,2-Dihydro-N-(2-methoxybenzyl)-N,2,6,7-tetramethyl-1-oxo-4-phenyl-3-isoquinolinecarboxamide] | 98 nM |
| Cc1cc2c(-c3ccccc3)c(C(=O)NCc3cccc(Cl)c3)n(C)c(=O)c2cc1C [Example 130, N-(3-Chlorobenzyl)-1,2-dihydro-2,6,7-trimethyl-1-oxo-4-phenyl-3-isoquinolinecarboxamide] | 38 nM |
| Cc1ccc(CNC(=O)c2c(-c3ccccc3)c3ccccc3c(=O)n2C)cc1 [Example 170, 1,2-Dihydro-2-methyl-N-(4-methylbenzyl)-1-oxo-4-phenyl-3isoquinolinecarboxamide] | 19 nM |
| CN(Cc1cc(C(F)(F)F)cc(C(F)(F)F)c1)C(=O)c1c(-c2ccccc2)c2ccccc2[nH]c1=O [Example 258, N-[3,5-Bis(trifluoromethyl)benzyl]-1,2-dihydro-N-methyl-2-oxo-4-phenyl-3-quinolinecarboxamide] | 3.1 nM |
| CCN(Cc1ccccc1OC)C(=O)c1c(-c2ccccc2C)c2ccccc2c(=O)n1C [Example 107, N-Ethyl-1,2-dihydro-N-(2-methoxybenzyl)-2-methyl-4-(2-methylphenyl)-1-oxo-3-isoquinolinecarboxamide] | 34 nM |
| CN(C)CCn1c(C(=O)N(C)Cc2cc(C(F)(F)F)cc(C(F)(F)F)c2)c(-c2ccccc2)c2ccccc2c1=O [Example 184, N-[3,5-Bis(trifluoromethyl)benzyl]-2-[2-(N,N-dimethylamino)ethyl]-1,2-dihydro-N-methyl-1-oxo-4-phenyl-3-isoquinolinecarboxamide hydrochloride] | 17 nM |
| COc1ccccc1CNCc1c(-c2ccccc2)c2cc(C)c(C)cc2c(=O)n1C [Example 190, 1,2-Dihydro-N-(2-methoxybenzyl)-2,6,7-trimethyl-1-oxo-4-phenyl-3-isoquinolinemethylamine] | 13 nM |
| CN(Cc1cc(C(F)(F)F)cc(C(F)(F)F)c1)C(=O)c1ncc2ccccc2c1-c1ccc(F)cc1 [Example 274, N-[3,5-Bis(trifluoromethyl)benzyl]-4-(4-fluorophenyl)-N-methyl-3-isoquinolinecarboxamide] | 2.3 nM |
| Cc1cc(C)cc(CN(C)C(=O)c2c(-c3ccccc3C)c3ccccc3c(=O)n2C)c1 [Example 106, 1,2-Dihydro-N-(3,5-dimethylbenzyl)-N,2-dimethyl-4-(2-methylphenyl)-1-oxo-3-isoquinolinecarboxamide] | 30 nM |
| CN(Cc1cc(C(F)(F)F)cc(C(F)(F)F)c1)C(=O)c1nc(Cl)c2ccccc2c1-c1ccc(F)cc1 [Example 273, N-[3,5-Bis(trifluoromethyl)benzyl]-1-chloro-4-(4-fluorophenyl)-N-methyl-3-isoquinolinecarboxamide] | 2 nM |

Compounds with a lower IC50, results first:

| IC50 | SMILES |
| --- | --- |
| 1.3 nM | COc1ccccc1-c1c(C(=O)N(C)Cc2cc(C(F)(F)F)cc(C(F)(F)F)c2)c(=O)oc2ccccc12 [Example 255, N-[3,5-Bis(trifluoromethyl)benzyl]-4-(2-methoxyphenyl)-N-methyl-2-oxo-2H-1-benzopyran-3-carboxamide] |
| 1.2 nM | CN(Cc1cc(C(F)(F)F)cc(C(F)(F)F)c1)C(=O)c1c(-c2ccccc2)c2ccccc2c(=O)n1C [Example 157, N-[3,5-Bis(trifluoromethyl)benzyl]-1,2-dihydro-N,2-dimethyl-1-oxo-4-phenyl-3-isoquinolinecarboxamide] |
| 1.2 nM | CN(Cc1cc(C(F)(F)F)cc(C(F)(F)F)c1)C(=O)c1c(-c2ccc(F)cc2)c2c(F)cccc2c(=O)n1C [Example 188, N-[3,5-Bis(trifluoromethyl)benzyl]-5-fluoro-4-(4-fluorophenyl)-N,2-dimethyl-1-oxo-3-isoquinolinecarboxamide] |
| 1 nM | CN(Cc1cc(C(F)(F)F)cc(C(F)(F)F)c1)C(=O)c1c(-c2ccccc2)c2ccccc2n(C)c1=O [Example 260, N-[3,5-Bis(trifluoromethyl)benzyl]-1,2-dihydro-N,1-dimethyl-2-oxo-4-phenyl-3-quinolinecarboxamide] |
| 0.9 nM | CN(Cc1cc(C(F)(F)F)cc(C(F)(F)F)c1)C(=O)c1oc(=O)c2ccccc2c1-c1ccccc1 [Example 243, N-[3,5-Bis(trifluoromethyl)benzyl]-N-methyl-1-oxo-4-phenyl-1H-2-benzopyran-3-carboxamide] |
| 0.52 nM | CN(Cc1cc(C(F)(F)F)cc(C(F)(F)F)c1)C(=O)c1cnc2ccccc2c1-c1ccccc1 [Example 265, N-[3,5-Bis(trifluoromethyl)benzyl]-N-methyl-4-phenyl-3-quinolinecarboxamide] |
| 0.36 nM | Cc1ccccc1-c1c(C(=O)N(C)Cc2cc(C(F)(F)F)cc(C(F)(F)F)c2)c(=O)oc2ccccc12 [Example 254, N-[3,5-Bis(trifluoromethyl)benzyl]-N-methyl-4-(2-methylphenyl)-2-oxo-2H-1-benzopyran-3-carboxamide] |
| 0.14 nM | CN(Cc1cc(C(F)(F)F)cc(C(F)(F)F)c1)C(=O)c1[nH]c(=O)c2ccccc2c1-c1ccc(F)cc1 [Example 178, N-[3,5-Bis(trifluoromethyl)benzyl]-4-(4-fluorophenyl)-1,2-dihydro-N-methyl-1-oxo-3-isoquinolinecarboxamide] |
